ChEMBL document CHEMBL1133132, “Cell adhesion antagonists: synthesis and evaluation of a novel series of phenylalanine based inhibitors” (Bioorg Med Chem Lett, 2000)

Target: T1, Integrin alpha-4/beta-7 (Homo sapiens, UniProt P13612+P26010)
T1 sequence (P13612 whole entry): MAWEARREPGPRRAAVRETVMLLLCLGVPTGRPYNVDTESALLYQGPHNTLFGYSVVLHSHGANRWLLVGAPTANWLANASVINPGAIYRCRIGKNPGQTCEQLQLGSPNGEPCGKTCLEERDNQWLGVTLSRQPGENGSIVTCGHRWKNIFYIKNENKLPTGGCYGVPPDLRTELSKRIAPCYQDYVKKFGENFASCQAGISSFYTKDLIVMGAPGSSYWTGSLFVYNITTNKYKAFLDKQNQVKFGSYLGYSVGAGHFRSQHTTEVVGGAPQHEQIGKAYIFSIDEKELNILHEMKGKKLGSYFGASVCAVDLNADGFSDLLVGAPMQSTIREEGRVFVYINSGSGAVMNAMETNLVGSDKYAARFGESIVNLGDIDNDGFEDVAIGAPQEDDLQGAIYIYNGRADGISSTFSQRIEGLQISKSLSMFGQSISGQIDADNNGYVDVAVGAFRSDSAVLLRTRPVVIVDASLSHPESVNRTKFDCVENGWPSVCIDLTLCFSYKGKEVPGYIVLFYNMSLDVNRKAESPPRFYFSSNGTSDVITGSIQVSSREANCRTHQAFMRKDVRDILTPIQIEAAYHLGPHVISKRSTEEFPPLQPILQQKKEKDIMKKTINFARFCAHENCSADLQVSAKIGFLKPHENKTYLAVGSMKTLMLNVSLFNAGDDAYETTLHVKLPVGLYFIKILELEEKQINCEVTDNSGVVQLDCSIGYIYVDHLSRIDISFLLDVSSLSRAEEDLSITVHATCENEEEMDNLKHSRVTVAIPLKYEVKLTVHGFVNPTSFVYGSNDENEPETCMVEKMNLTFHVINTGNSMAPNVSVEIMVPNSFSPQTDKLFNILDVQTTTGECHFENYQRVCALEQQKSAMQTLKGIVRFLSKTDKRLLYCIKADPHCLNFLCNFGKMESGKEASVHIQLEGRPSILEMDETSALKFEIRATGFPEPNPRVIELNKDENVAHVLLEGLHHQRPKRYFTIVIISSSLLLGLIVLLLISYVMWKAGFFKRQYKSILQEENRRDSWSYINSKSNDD
T1 sequence (P26010 whole entry): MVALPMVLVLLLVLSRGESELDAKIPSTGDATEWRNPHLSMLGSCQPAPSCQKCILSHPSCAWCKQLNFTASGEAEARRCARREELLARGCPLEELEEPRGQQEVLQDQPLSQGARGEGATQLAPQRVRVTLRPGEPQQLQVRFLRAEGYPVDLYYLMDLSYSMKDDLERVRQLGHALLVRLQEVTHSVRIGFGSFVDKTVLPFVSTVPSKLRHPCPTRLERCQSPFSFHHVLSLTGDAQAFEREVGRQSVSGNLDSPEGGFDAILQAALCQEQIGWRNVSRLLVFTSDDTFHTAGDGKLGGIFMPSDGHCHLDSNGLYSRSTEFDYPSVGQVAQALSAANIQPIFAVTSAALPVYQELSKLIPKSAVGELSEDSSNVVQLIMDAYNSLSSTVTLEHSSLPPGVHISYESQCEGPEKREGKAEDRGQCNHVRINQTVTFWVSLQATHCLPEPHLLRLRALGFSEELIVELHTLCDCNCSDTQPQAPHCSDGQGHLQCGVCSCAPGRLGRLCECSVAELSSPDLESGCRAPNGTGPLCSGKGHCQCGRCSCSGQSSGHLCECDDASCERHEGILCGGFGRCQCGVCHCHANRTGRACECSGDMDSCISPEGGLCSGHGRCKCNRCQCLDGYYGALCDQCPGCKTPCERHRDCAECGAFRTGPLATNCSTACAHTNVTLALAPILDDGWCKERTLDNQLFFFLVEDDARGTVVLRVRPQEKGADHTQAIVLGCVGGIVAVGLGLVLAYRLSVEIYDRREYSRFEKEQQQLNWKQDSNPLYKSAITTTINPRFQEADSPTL
Assay: Inhibition of alpha-4 beta7/MAdCAM mediated cell adhesion was evaluated using B-cell lymphoma RPMI 8866 cells; call rule not given here
Type: functional, cell-based

| Compound | IC50 [µM] |
| --- | --- |
| CC(C)(C)OC(=O)[C@H](Cc1ccccc1)NCc1ccccc1F | 117 |
| CC(C)(C)OC(=O)[C@H](Cc1ccccc1)NCc1cccc(F)c1 | 176 |
| O=C(OCc1ccccc1)[C@H](Cc1ccccc1)NCc1cc([N+](=O)[O-])ccc1O | 7 |
| CC(C)(C)OC(=O)[C@H](Cc1ccccc1)NCc1ccccc1 | 100 |
| COc1cccc(CN[C@@H](Cc2ccccc2)C(=O)OC(C)(C)C)c1 | 122 |
| COc1ccccc1CN[C@@H](Cc1ccccc1)C(=O)OC(C)(C)C | 50 |
| COc1ccc(CN[C@@H](Cc2ccccc2)C(=O)OC(C)(C)C)cc1 | 122 |
| C=C(C)CCOC(=O)[C@H](Cc1ccccc1)NCc1cc([N+](=O)[O-])ccc1O | 82 |
| CC(C)(C)OC(=O)[C@H](Cc1ccccc1)NCc1ccc(F)cc1 | 121 |

The next lines start with the values.

| IC50 [µM] | Compound |
| --- | --- |
| 54 | CC(C)(C)OC(=O)[C@H](Cc1ccccc1)NCc1cccc(O)c1 |
| 60 | CC(C)(C)OC(=O)[C@H](Cc1ccccc1)NCc1ccccc1O |
| 30 | CC(C)(C)OC(=O)[C@H](Cc1ccccc1)NCc1cc([N+](=O)[O-])ccc1O |
| 85 | CC(C)(C)OC(=O)[C@H](Cc1ccccc1)NCc1ccc(O)cc1 |
| 9 | CC(C)(C)COC(=O)[C@H](Cc1ccccc1)NCc1cc([N+](=O)[O-])ccc1O |
| 6 | CC(C)CCNC(=O)[C@H](Cc1ccccc1)NCc1cc([N+](=O)[O-])ccc1O |
| 7 | CC(C)CCOC(=O)[C@H](Cc1ccccc1)NCc1cc([N+](=O)[O-])ccc1O |

Target: T1, Integrin alpha-4/beta-7
Assay: Inhibition of alpha-4 beta7/MAdCAM mediated cell adhesion was evaluated using B-cell lymphoma RPMI 8866 cells; In active
Type: functional, cell-based

| IC50 | Compound |
| --- | --- |
| Not Active | CC(C)(C)OC(=O)[C@H](Cc1ccccc1)NCc1ccc([N+](=O)[O-])c(O)c1 |
| Not Active | CC(C)CCNC(=O)[C@@H](Cc1ccccc1)NCc1cc([N+](=O)[O-])ccc1O |
